{"source": "patent US20140284278A1", "about": "“CATIONIC DISPLACER MOLECULES FOR HYDROPHOBIC DISPLACEMENT CHROMATOGRAPHY” (SACHEM, INC., priority 2011, published 2014)", "key": {"[1]": {"settings": "amine pH-buffers with low pKa values; cited from earlier work"}, "[2]": {"test": "Partitioning in two-phase diethyl ether-water extraction", "assay_type": "physicochemical", "method": "This is a modification of Method A based on the partitioning behavior in a two-phase diethyl ether-water extraction. […] 53.4 g Purified and recrystallized N-(4-fluorobenzyl)-N-decylpyrrolidinium chloride (150 mmole, fw=355.97) is placed in a 250 mL separatory funnel followed by 53.4 g degassed, deionized water. The flask is shaken until a clear, viscous solution is formed (˜1.5 M solution). 25.6 g Trifluoroacetic (225 mmole, fw=114.02) is added to the mixture which is vigorously mixed. Immediately two phases form with the product in the lower layer. 110 mL peroxide-free diether ether is added to the separatory funnel and the mixture is vigorously mixed again. After 2 hours, the phases fully separate with the product in the upper ether phase. The lower phase is discarded and the upper is retained. 55 mL 1% trifluoroacetic acid in distilled water is added, the mixture is vigorously mixed and phases are again allowed to separate. Again, the upper phase is retained, dried over anhydrous magnesium sulfate, filtered and placed on a rotary evaporator in order to remove the ether along with residual HCl, trifluoroacetic acid and water. This procedure yields 59.2 g (91%) of a pure, clear, viscous oil (ionic liquid). This material is suitable for use as a displacer. HPLC purity of the quat cation is essentially identical to the starting material. […]"}, "[3]": {"test": "Hygroscopicity of crystalline salt in air", "assay_type": "physicochemical", "settings": "crystalline substance, absorbs moisture from the air", "method": "380.5 g Purified N-decylpyrrolidine (1.8 mole, fw=211.39) is added to 720 mL stirring acetonitrile in a 2 L, 4-neck round-bottom flask that is equipped with a heating mantle, mechanical stirrer, 500 mL addition funnel, reflux condensor and teflon-coated thermocouple. The reaction is carried out under a nitrogen atmosphere with a slow N2 purge. The stirring mixture is heated to 50° C., and 289.1 g freshly distilled 4-fluorobenzyl chloride (2.0 mole, fw=144.58) is added in a dropwise fashion over a period of about 60 minutes. The reaction mixture is then heated to about 80° C. for 8-12 hours and periodically monitored by HPLC (Method 10a) in order to ensure that the starting amine is entirely consumed. The reaction mixture is cooled to room temperature, filtered through sintered-glass and placed on a rotary evaporator to remove the solvent (acetonitrile). 1.0 L Methyl t-butyl ether (MTBE) is added portionwise with mechanical stirring to the sticky orange-yellow reaction residue. Once this mixture is fully suspended in the solvent, it is transferred to a clean 4 L Erlenmeyer flask, and an additional amount of MTBE (1.9 L) is slowly added with stirring. […] A sharp melting point in a glass capillary is measured at 137-138° C. when measured between 90-140° C. at the heating rate of 1.0° C./minute. […]"}, "Solubility in water": {"test": "Solubility in water", "settings": "pure water"}, "[4]": {"settings": "cited from earlier work"}}}
{"smiles": "CN(C)CCN(C)C", "note": "[N,N,N′,N′-tetramethylethylene-diamine]", "values": [{"measurement": "pKa", "setting": "[1]", "value": 5.9}]}
{"smiles": "CCCCCCCCCC[N+]1(Cc2ccc(F)cc2)CCCC1.[Cl-]", "note": "[N-(4-Fluorobenzyl)-N-decylpyrrolidinium Chloride]", "values": [{"measurement": "partitioning behavior", "setting": "[2]", "value": "strongly partitions into the water layer"}, {"measurement": "hygroscopicity", "setting": "[3]", "value": "very hygroscopic"}, {"measurement": "solubility", "setting": "Solubility in water", "value": 2000, "unit": "mM"}]}
{"smiles": "CCCCCCCCCC[N+]1(Cc2ccc(F)cc2)CCCC1.O=C([O-])C(F)(F)F", "note": "[N-(4-Fluorobenzyl)-N-decylpyrrolidinium Trifluoroacetate]", "values": [{"measurement": "partitioning behavior", "setting": "[2]", "value": "strongly partitions into the ether layer"}, {"measurement": "solubility", "setting": "Solubility in water", "value": "~120", "unit": "mM"}]}
{"smiles": "CCN1CCNCC1", "note": "[N-ethylpiperazine]", "values": [{"measurement": "pKa", "setting": "[1]", "value": 5.0}]}
{"smiles": "C1CCCCC1", "note": "[cyclohexane]", "values": [{"measurement": "solubility in water", "setting": "[4]", "value": "~0.01", "unit": "mM"}]}
{"smiles": "c1ccc2ccccc2c1", "note": "[naphthalene]", "values": [{"measurement": "solubility in water", "setting": "[4]", "value": 0.2, "unit": "mM"}]}
{"smiles": "C1CC[C@H]2CCCC[C@@H]2C1", "note": "[trans-decalin]", "values": [{"measurement": "solubility in water", "setting": "[4]", "value": "< 0.001", "unit": "mM"}]}
